Test results from the CheMixHub viscosity set.
± gives the uncertainty stated by the source.

Assay: xn = mol fraction of the nth substance listed

CCOC(=O)[C@@H](O)[C@H](O)C(=O)OCC + CC(C)CCO
viscosity [mPa·s], 101 kPa
Conditions	x1 = 0.1	x1 = 0.2	x1 = 0.3	x1 = 0.4001	x1 = 0.5	x1 = 0.6001	x1 = 0.6999	x1 = 0.7997	x1 = 0.8998
293.15 K	5.227 ± 0.049	7.032 ± 0.065	9.91 ± 0.092	13.58 ± 0.12	20.31 ± 0.19	31.03 ± 0.29	46.13 ± 0.43	74.54 ± 0.76	129.6 ± 1.9
298.15 K	4.438 ± 0.042	5.859 ± 0.055	8.123 ± 0.075	10.83 ± 0.1	15.81 ± 0.15	23.2 ± 0.21	33.35 ± 0.31	51.5 ± 0.45	84.95 ± 0.94
303.15 K	3.768 ± 0.036	4.88 ± 0.046	6.638 ± 0.062	8.752 ± 0.081	12.37 ± 0.11	17.66 ± 0.16	24.71 ± 0.23	36.84 ± 0.34	58.14 ± 0.52
308.15 K	3.225 ± 0.031	4.138 ± 0.039	5.497 ± 0.051	7.134 ± 0.066	9.862 ± 0.091	13.75 ± 0.13	18.79 ± 0.17	27.17 ± 0.25	41.31 ± 0.38
313.15 K	2.774 ± 0.026	3.487 ± 0.033	4.567 ± 0.043	5.855 ± 0.055	7.945 ± 0.074	10.86 ± 0.1	14.56 ± 0.13	20.53 ± 0.19	30.25 ± 0.28
318.15 K	2.416 ± 0.023	3.02 ± 0.029	3.904 ± 0.037	4.935 ± 0.046	6.58 ± 0.061	8.824 ± 0.082	11.61 ± 0.11	15.99 ± 0.15	22.88 ± 0.21
323.15 K	2.13 ± 0.021	2.649 ± 0.025	3.374 ± 0.032	4.215 ± 0.04	5.529 ± 0.051	7.295 ± 0.068	9.449 ± 0.087	12.74 ± 0.12	17.8 ± 0.16

CCCCCl + CC(C)CO
viscosity [mPa·s], 101 kPa
Conditions	x1 = 0.0951	x1 = 0.2057	x1 = 0.3038	x1 = 0.4102	x1 = 0.5035	x1 = 0.6121	x1 = 0.7033	x1 = 0.8022	x1 = 0.9043
298.15 K	2.41 ± 0.022	1.677 ± 0.015	1.261 ± 0.011	0.9677 ± 0.0088	0.7931 ± 0.0072	0.6506 ± 0.006	–	0.5 ± 0.1	0.4513 ± 0.0043
313.15 K	1.576 ± 0.017	1.152 ± 0.011	0.9054 ± 0.0087	0.7239 ± 0.0069	0.6137 ± 0.0059	0.5199 ± 0.005	0.4687 ± 0.0045	0.4153 ± 0.0041	0.3832 ± 0.0038

CCOC(=O)[C@@H](O)[C@H](O)C(=O)OCC + CC(C)CO
viscosity [mPa·s], 101 kPa
Conditions	x1 = 0.1	x1 = 0.2	x1 = 0.3001	x1 = 0.3999	x1 = 0.5	x1 = 0.6001	x1 = 0.6989	x1 = 0.7998	x1 = 0.8994
293.15 K	5.103 ± 0.041	7.263 ± 0.059	10.49 ± 0.086	15.86 ± 0.13	24.25 ± 0.2	34.35 ± 0.29	50.55 ± 0.42	88.25 ± 0.97	140.9 ± 2.2
298.15 K	4.28 ± 0.035	5.98 ± 0.049	8.485 ± 0.07	12.38 ± 0.1	18.34 ± 0.15	25.34 ± 0.22	36.11 ± 0.31	59.79 ± 0.52	91.12 ± 1
303.15 K	3.601 ± 0.03	4.928 ± 0.041	6.848 ± 0.056	9.831 ± 0.082	14.09 ± 0.12	19.07 ± 0.16	26.5 ± 0.23	42.09 ± 0.37	62.16 ± 0.56
308.15 K	3.052 ± 0.025	4.111 ± 0.034	5.611 ± 0.046	7.889 ± 0.066	11.06 ± 0.093	14.71 ± 0.12	19.99 ± 0.17	30.63 ± 0.27	43.93 ± 0.4
313.15 K	2.607 ± 0.022	3.444 ± 0.029	4.609 ± 0.038	6.39 ± 0.053	8.797 ± 0.074	11.53 ± 0.098	15.38 ± 0.13	22.88 ± 0.2	31.96 ± 0.29
318.15 K	2.249 ± 0.019	2.956 ± 0.025	3.912 ± 0.033	5.322 ± 0.045	7.201 ± 0.061	9.298 ± 0.08	12.19 ± 0.11	17.64 ± 0.16	24.09 ± 0.22
323.15 K	1.973 ± 0.017	2.567 ± 0.022	3.358 ± 0.028	4.497 ± 0.038	5.991 ± 0.051	7.637 ± 0.066	9.865 ± 0.086	13.94 ± 0.12	18.67 ± 0.17

CC1CCCCC1 + CC(C)O
viscosity [mPa·s], 100 kPa
Conditions	x1 = 0.081	x1 = 0.1601	x1 = 0.2401	x1 = 0.35	x1 = 0.44	x1 = 0.5602	x1 = 0.65	x1 = 0.7401	x1 = 0.8501	x1 = 0.9403
293.15 K	1.88 ± 0.23	1.47 ± 0.18	1.17 ± 0.14	0.89 ± 0.11	0.78 ± 0.09	0.72 ± 0.09	0.73 ± 0.09	0.75 ± 0.09	0.77 ± 0.09	0.76 ± 0.09
298.15 K	1.65 ± 0.2	1.33 ± 0.16	1.08 ± 0.13	0.87 ± 0.1	0.76 ± 0.09	0.71 ± 0.09	0.7 ± 0.1	0.7 ± 0.1	–	0.71 ± 0.09
303.15 K	–	1.18 ± 0.14	0.98 ± 0.12	0.81 ± 0.1	0.73 ± 0.09	0.7 ± 0.1	0.69 ± 0.08	0.68 ± 0.08	0.68 ± 0.08	0.67 ± 0.08
308.15 K	1.26 ± 0.15	1.05 ± 0.13	0.89 ± 0.11	0.74 ± 0.09	0.67 ± 0.08	0.64 ± 0.08	0.63 ± 0.08	0.63 ± 0.08	0.64 ± 0.08	0.62 ± 0.07
313.15 K	1.1 ± 0.13	0.92 ± 0.11	0.79 ± 0.1	0.65 ± 0.08	0.6 ± 0.1	0.58 ± 0.07	0.57 ± 0.07	0.58 ± 0.07	0.59 ± 0.07	0.6 ± 0.07
318.15 K	0.97 ± 0.12	0.82 ± 0.1	0.7 ± 0.08	0.6 ± 0.07	0.55 ± 0.07	0.54 ± 0.07	0.54 ± 0.07	0.55 ± 0.07	0.56 ± 0.07	0.55 ± 0.07
323.15 K	0.84 ± 0.1	0.69 ± 0.08	0.58 ± 0.07	0.49 ± 0.06	0.46 ± 0.06	0.46 ± 0.06	0.47 ± 0.06	0.49 ± 0.06	0.51 ± 0.06	0.52 ± 0.06

CCCCCl + CC(C)O
298.15 K, 101 kPa
Conditions	viscosity [mPa·s]
x2 = 0.1	0.438 ± 0.012
x2 = 0.1661	0.468 ± 0.013
x2 = 0.225	0.47 ± 0.013
x2 = 0.2891	0.493 ± 0.014
x2 = 0.35	0.522 ± 0.014
x2 = 0.4295	0.579 ± 0.016
x2 = 0.5105	0.642 ± 0.017
x2 = 0.5479	0.675 ± 0.018
x2 = 0.6603	0.809 ± 0.021
x2 = 0.7645	1.044 ± 0.027
x2 = 0.8538	1.338 ± 0.035
x2 = 0.92	1.615 ± 0.042

CCOC(=O)c1ccccc1 + CC(C)O
viscosity [mPa·s], 101 kPa
Conditions	x1 = 0.056	x1 = 0.1177	x1 = 0.1862	x1 = 0.2624	x1 = 0.348	x1 = 0.4446	x1 = 0.546	x1 = 0.681	x1 = 0.8277
303.15 K	1.659 ± 0.04	1.664 ± 0.04	1.671 ± 0.04	1.678 ± 0.041	1.686 ± 0.041	1.695 ± 0.041	1.706 ± 0.041	1.719 ± 0.041	1.733 ± 0.042
308.15 K	1.501 ± 0.037	1.508 ± 0.037	1.515 ± 0.037	1.525 ± 0.037	1.532 ± 0.037	1.541 ± 0.038	1.551 ± 0.038	1.563 ± 0.038	1.577 ± 0.038
313.15 K	1.327 ± 0.033	1.337 ± 0.033	1.345 ± 0.033	1.356 ± 0.034	1.367 ± 0.034	1.38 ± 0.034	1.394 ± 0.034	1.409 ± 0.035	1.426 ± 0.035
318.15 K	1.192 ± 0.03	1.203 ± 0.03	1.213 ± 0.03	1.225 ± 0.03	1.239 ± 0.031	1.254 ± 0.031	1.27 ± 0.031	1.291 ± 0.032	1.313 ± 0.032
323.15 K	1.074 ± 0.027	1.085 ± 0.027	1.099 ± 0.028	1.114 ± 0.028	1.13 ± 0.028	1.15 ± 0.029	1.167 ± 0.029	1.194 ± 0.03	1.222 ± 0.03

CCS(=O)CC + CCC#N
viscosity [mPa·s], 101 kPa
Conditions	x1 = 0.0998	x1 = 0.2002	x1 = 0.2962	x1 = 0.3999	x1 = 0.4953	x1 = 0.6017	x1 = 0.6937	x1 = 0.7999	x1 = 0.8998
298.15 K	0.53 ± 0.01	0.63 ± 0.01	0.73 ± 0.02	0.89 ± 0.02	1.05 ± 0.02	1.26 ± 0.03	1.45 ± 0.03	1.74 ± 0.04	1.98 ± 0.04
303.15 K	0.49 ± 0.01	0.59 ± 0.01	0.69 ± 0.02	0.83 ± 0.02	0.96 ± 0.02	1.15 ± 0.02	1.35 ± 0.03	1.56 ± 0.03	1.84 ± 0.04
308.15 K	0.46 ± 0.01	0.55 ± 0.01	0.64 ± 0.01	0.78 ± 0.02	0.89 ± 0.02	1.06 ± 0.02	1.25 ± 0.03	1.41 ± 0.03	1.68 ± 0.04
313.15 K	0.44 ± 0.01	0.54 ± 0.01	0.61 ± 0.01	0.74 ± 0.02	0.85 ± 0.02	0.99 ± 0.02	1.14 ± 0.02	1.32 ± 0.03	1.52 ± 0.03
318.15 K	0.42 ± 0.01	0.5 ± 0.01	0.59 ± 0.01	0.69 ± 0.02	0.78 ± 0.02	0.92 ± 0.02	–	1.21 ± 0.03	1.39 ± 0.03
323.15 K	0.36 ± 0.01	0.43 ± 0.01	0.51 ± 0.01	0.59 ± 0.01	0.67 ± 0.02	0.79 ± 0.02	0.91 ± 0.02	1.02 ± 0.02	1.17 ± 0.03

CCCCCN + CCC(=O)O
viscosity [mPa·s], 101.33 kPa
Conditions	293.15 K	298.15 K	298.5 K	303.15 K	308.15 K	313.15 K	318.15 K	323.15 K
x2 = 0.1	1.62 ± 0.01	1.53 ± 0.01	–	1.42 ± 0.01	1.4 ± 0.01	1.32 ± 0.01	1.24 ± 0.01	–
x2 = 0.2	1.97 ± 0.16	1.86 ± 0.02	–	1.74 ± 0.01	1.69 ± 0.01	1.6 ± 0.01	1.51 ± 0.01	–
x2 = 0.3	13.7 ± 0.89	11.78 ± 0.13	–	10.12 ± 0.11	8.82 ± 0.09	7.77 ± 0.08	6.87 ± 0.07	–
x2 = 0.4	85.81 ± 7.5	–	71.98 ± 1.3	56.82 ± 1	46.99 ± 0.71	39.47 ± 0.55	33.6 ± 0.44	28.82 ± 0.31
x2 = 0.5	707.8 ± 6.1	510.2 ± 7.2	–	386 ± 4.7	296.3 ± 3.5	226.2 ± 2.6	178.3 ± 1.9	–
x2 = 0.6	368.1 ± 4.9	274.6 ± 3.6	–	210 ± 2.5	164.6 ± 1.9	130.8 ± 1.4	103.8 ± 1.1	–
x2 = 0.7	75.4 ± 1.1	60.4 ± 0.89	–	48.75 ± 0.67	40.4 ± 0.52	33.8 ± 0.41	28.4 ± 0.32	–
